In this assay the test system is P. falciparum strain 3D7. The experiment in a line: P. falciparum growth inhibition assay (Picogreen DNA content, 3 days). It is filed as cell-based, Plasmodium falciparum. Conditions: for EC50: P. falciparum 3D7 intraerythrocytic forms, 3 days, mean, read-out: EC50 (IC50 in Fig 4A) for inhibition of parasite growth; for IC50: 3D7, 3D7, Expt 1-3, read-out: IC50 for inhibition of parasite growth, individual experiments. The method, then: P. falciparum strain 3D7 was obtained from the Malaria Research and Reference Reagent Resource Center (MR4, ATCC, Manassas, VA). Parasites were cultured in a 2% suspension of human erythrocytes and RPMI 1640 (Sigma) medium supplemented with 27 mM sodium bicarbonate, 11 mM glucose, 5 mM HEPES, 1 mM sodium pyruvate, 0.37 mM hypoxanthine, 0.01 mM thymidine, 10 μg/ml gentamicin, and 0.5% Albumax (Gibco) at 37°C, 5% O2/ 5% CO2 / 90% N2 atmosphere as previously described.
Asynchronous P. falciparum cultures were diluted to 1% parasitemia and were treated with compounds at concentrations ranging from 0.195 μM—100 μM. Growth inhibition assays were performed in 100 μl cultures in opaque 96-well plates. Parasite growth was quantified after 3 days by measuring DNA content using Picogreen (Life Technologies)[22]. Fluorescence was measured by a FLUOstar Omega microplate reader (BMG Labtech) at 485 nm excitation and 528 nm emission. IC50 values were calculated by least squares nonlinear regression analysis using GraphPad Prism 6.0 software.

Where [1] appears, read: Plasmodium falciparum, 3D7, 72 h.

Broadly, the EC50 is the concentration needed to bring the measured effect to its halfway point. As a reminder, the IC50 is the point on the concentration scale where inhibition reaches its midpoint.

Where “and” joins values, the source holds several entries; their conditions need not be identical. Equal entries are not always repeated. Where two headings read alike, the source gives them in different places.

Turning to `Cc1ccc(S(=O)(=O)CCNC(=O)c2c(-c3c(Cl)cccc3Cl)noc2C)cc1` [WU-1, 3-(2,6-dichlorophenyl)-5-methyl-N-[2-(4-methylbenzenesulfonyl)ethyl]-1,2-oxazole-4-carboxamide], the EC50 was determined as 5.49 µM. Besides, the IC50 (Plasmodium falciparum) came to 4.66 µM. Moreover, under setting [1], the EC50 came to 5.5 ± 0.6 µM. Moreover, the “Parasite kill curve raw reading (Picogreen fluorescence), duplicate wells of Expt 1-3” value (from here on “Parasite kill curve raw reading”) (concentration 0.195312 (μM)) was 31647.2 and 35553.2 and 49650 and 55614 and 44370 and 49901. Further, the “Parasite kill curve raw reading” value (concentration 0.390625 (μM)) was 38759.2 and 38857.2 and 52621 and 61368 and 45376 and 55663. Further, the “Parasite kill curve raw reading” value (concentration 0.78125 (μM)) was 33807.2 and 31780.2 and 49005 and 55418 and 44284 and 47486. For the same compound, the “Parasite kill curve raw reading” value (concentration 1.5625 (μM)) is 30912.2 and 34557.2 and 48254 and 53201 and 42714 and 48519. Moreover, where the note is “concentration 3.125 (μM)”, the “Parasite kill curve raw reading” value is 26767.2 and 25415.2 and 46950 and 47685 and 35273 and 35563. Further, under “concentration 6.25 (μM)”, the “Parasite kill curve raw reading” value is 20627.2 and 20040.2 and 32177 and 39080 and 23717 and 27707. Also, under “concentration 25 (μM)”, the “Parasite kill curve raw reading” value is 7109.17 and 9009.17 and 13213 and 12190 and 10238 and 11917. In addition, where the note is “concentration 50 (μM)”, the “Parasite kill curve raw reading” value is 6656.17 and 8203.17 and 11766 and 11899 and 11265 and 11133.

Consider `COc1c(Br)cc([N+](=O)[O-])c(OC)c1C(=O)NC(=O)Nc1c(C)cccc1Cl` [WU-2, 3-(3-bromo-2,6-dimethoxy-5-nitrobenzoyl)-1-(2-chloro-6-methylphenyl)urea], for which, for the setting “Plasmodium falciparum”, the half-inhibitory concentration (IC50) is 21.3 µM. The EC50 under setting [1] worked out at 22.8 ± 0.8 µM. Besides, the “Parasite kill curve raw reading” value is 56098 and 51137 and 60240 and 31267.2 and 43585.2 and 60791 (concentration 0.195312 (μM)); 62198 and 51117 and 53186 and 43543.2 and 40121.2 and 61300 (concentration 0.390625 (μM)); 60027 and 63524 and 61078 and 36660.2 and 37397.2 and 61445 (concentration 0.78125 (μM)); 62718 and 60757 and 53560 and 40753.2 and 35617.2 and 59505 (concentration 1.5625 (μM)); 44791 and 46211 and 39233 and 29745.2 and 34796.2 and 56088 (concentration 12.5 (μM)); 31771 and 33221 and 31489 and 18075.2 and 22893.2 and 29768 (concentration 25 (μM)).
